± gives the expanded uncertainty stated by the source.
Legend:
[1] = 298.15 K, 101 kPa, Liquid; for viscosity: Capillary tube (Ostwald / Ubbelohde) method; for mass density: Vibrating tube method
[2] = refractive index (Na D-line) (dimensionless); details: 298.15 K; 101.33 kPa; Liquid; Standard Abbe refractometry
[3] = refractive index (Na D-line) (dimensionless); xn = mol fraction of the nth substance listed; details: 298.15 K, 101 kPa, Liquid, Standard Abbe refractometry
[4] = xn = mol fraction of the nth substance listed; details: 298.15 K, 101 kPa, Liquid; for viscosity: Capillary tube (Ostwald / Ubbelohde) method; for mass density: Vibrating tube method

CCCCn1cc[n+](C)c1C.F[B-](F)(F)F [1-butyl-2,3-dimethylimidazolium tetrafluoroborate]
viscosity [1]: 455.81 ± 29 mPa·s
mass density [1]: 1191.2 ± 7.7 kg/m3
refractive index [2]: 1.433 ± 0.002

CCCCn1cc[n+](C)c1C.F[B-](F)(F)F [1-butyl-2,3-dimethylimidazolium tetrafluoroborate] + O
refractive index ([3]; x1 = 0.0397): 1.362 ± 0.002
refractive index ([3]; x1 = 0.1068): 1.387 ± 0.002
refractive index ([3]; x1 = 0.1997): 1.404 ± 0.002
refractive index ([3]; x1 = 0.2577): 1.411 ± 0.002
refractive index ([3]; x1 = 0.3222): 1.417 ± 0.002
refractive index ([3]; x1 = 0.4983): 1.423 ± 0.002
refractive index ([3]; x1 = 0.7058): 1.429 ± 0.002
refractive index ([3]; x1 = 0.7325): 1.43 ± 0.002
refractive index ([3]; x1 = 0.8659): 1.432 ± 0.002
refractive index ([3]; x1 = 1): 1.433 ± 0.002
viscosity ([4]; x1 = 0.0085): 1.06 ± 0.01 mPa·s
viscosity ([4]; x1 = 0.0397): 1.83 ± 0.02 mPa·s
viscosity ([4]; x1 = 0.1068): 3.96 ± 0.04 mPa·s
viscosity ([4]; x1 = 0.1997): 7.34 ± 0.08 mPa·s
viscosity ([4]; x1 = 0.2577): 10.07 ± 0.11 mPa·s
viscosity ([4]; x1 = 0.3222): 12.62 ± 0.16 mPa·s
viscosity ([4]; x1 = 0.7058): 94.63 ± 2.6 mPa·s
viscosity ([4]; x1 = 0.7325): 104.97 ± 3.1 mPa·s
viscosity ([4]; x1 = 0.8659): 214.82 ± 9.5 mPa·s
viscosity ([4]; x1 = 1): 455.81 ± 29 mPa·s
mass density ([4]; x1 = 0.0085): 1012.56 ± 0.095 kg/m3
mass density ([4]; x1 = 0.0397): 1053.33 ± 0.16 kg/m3
mass density ([4]; x1 = 0.1068): 1100.33 ± 0.3 kg/m3
mass density ([4]; x1 = 0.1997): 1132.18 ± 0.58 kg/m3
mass density ([4]; x1 = 0.2577): 1144.22 ± 0.81 kg/m3
mass density ([4]; x1 = 0.3222): 1154.04 ± 1.1 kg/m3
mass density ([4]; x1 = 0.7058): 1182.14 ± 4 kg/m3
mass density ([4]; x1 = 0.7325): 1183.22 ± 4.3 kg/m3
mass density ([4]; x1 = 0.8659): 1187.78 ± 5.9 kg/m3
mass density ([4]; x1 = 1): 1191.2 ± 7.7 kg/m3

CCCCn1cc[n+](C)c1.F[B-](F)(F)F [1-butyl-3-methylimidazolium tetrafluoroborate]
viscosity [1]: 100.66 ± 3.3 mPa·s
mass density [1]: 1200.3 ± 7.8 kg/m3
refractive index [2]: 1.422 ± 0.002

CCCCn1cc[n+](C)c1.F[B-](F)(F)F [1-butyl-3-methylimidazolium tetrafluoroborate] + O
refractive index ([3]; x1 = 0.044): 1.36 ± 0.002
refractive index ([3]; x1 = 0.1267): 1.384 ± 0.002
refractive index ([3]; x1 = 0.3134): 1.405 ± 0.002
refractive index ([3]; x1 = 0.4984): 1.412 ± 0.002
refractive index ([3]; x1 = 0.5802): 1.415 ± 0.002
refractive index ([3]; x1 = 0.7488): 1.418 ± 0.002
refractive index ([3]; x1 = 0.8089): 1.419 ± 0.002
refractive index ([3]; x1 = 0.9719): 1.421 ± 0.002
refractive index ([3]; x1 = 1): 1.422 ± 0.002
viscosity ([4]; x1 = 0.036): 1.51 ± 0.01 mPa·s
viscosity ([4]; x1 = 0.044): 1.67 ± 0.02 mPa·s
viscosity ([4]; x1 = 0.1267): 3.22 ± 0.03 mPa·s
viscosity ([4]; x1 = 0.3134): 7.2 ± 0.09 mPa·s
viscosity ([4]; x1 = 0.4984): 13.63 ± 0.22 mPa·s
viscosity ([4]; x1 = 0.5802): 19.25 ± 0.34 mPa·s
viscosity ([4]; x1 = 0.8089): 46.55 ± 1.1 mPa·s
viscosity ([4]; x1 = 0.9719): 88.87 ± 2.7 mPa·s
viscosity ([4]; x1 = 1): 100.66 ± 3.3 mPa·s
mass density ([4]; x1 = 0.036): 1050.07 ± 0.15 kg/m3
mass density ([4]; x1 = 0.044): 1058.55 ± 0.17 kg/m3
mass density ([4]; x1 = 0.1267): 1112.51 ± 0.36 kg/m3
mass density ([4]; x1 = 0.3134): 1158.59 ± 1.1 kg/m3
mass density ([4]; x1 = 0.4984): 1177.85 ± 2.2 kg/m3
mass density ([4]; x1 = 0.5802): 1183.49 ± 2.9 kg/m3
mass density ([4]; x1 = 0.8089): 1194.47 ± 5.3 kg/m3
mass density ([4]; x1 = 0.9719): 1199.54 ± 7.4 kg/m3
mass density ([4]; x1 = 1): 1200.3 ± 7.8 kg/m3

O [water] + CCCCn1cc[n+](C)c1.F[B-](F)(F)F
refractive index ([3]; x2 = 0): 1.333 ± 0.002
viscosity ([4]; x2 = 0): 0.89 ± 0.01 mPa·s

O [water] + CCCCn1cc[n+](C)c1C.F[B-](F)(F)F
refractive index ([3]; x2 = 0): 1.333 ± 0.002
viscosity ([4]; x2 = 0): 0.89 ± 0.01 mPa·s
